Assay results: patent US20240245753A1, “METHODS OF REDUCING SIDE EFFECTS OF ANTI-CD30 ANTIBODY DRUG CONJUGATE THERAPY” (priority 2017, published 2024)
Where two headings read alike, the source gives them in different places.

Key:
[1] = test system: relapsed or refractory sALCL; conditions: cited from earlier work
[2] = test system: newly diagnosed CD30-positive mature T- and NK-cell neoplasms, including sALCL; conditions: given concomitantly with CHP; cited from earlier work
[3] = Randomized, double-blind Phase 3 clinical trial of A+CHP versus CHOP: safety (adverse events, exposure); conditions: human, in vivo
Source text: TRIAL DESIGN: Approximately 450 patients (approximately 225 patients per treatment arm) are randomized in this study. The standard of care in this patient population consists of 6-8 cycles of CHOP chemotherapy. Patients are randomized in a 1:1 manner to receive 21-day cycles of treatment in 1 of the following 2 treatment groups: Standard-of-care arm: 6-8 cycles of CHOP; or Experimental arm: 6-8 cycles of brentuximab vedotin plus CHP (A+CHP). A target of 8 cycles of study treatment are administered, per investigator decision, based on patient-specific characteristics, including stage of disease and IPI risk score.
Safety is evaluated by the incidence of adverse events, using the Medical Dictionary for Regulatory Activities (MedDRA; v19.0), and National Cancer Institute Common Terminology Criteria for Adverse Events v4.03, and by changes in vital signs, and clinical laboratory results.
All efficacy evaluations are conducted using the intent-to-treat population unless otherwise specified. Safety is analyzed in patients who received at least one dose of study drug (safety population).
Subjects were randomly assigned in a 1:1 ratio to receive 21-day cycles of either A+CHP or CHOP for 6 or 8 cycles, with the number of cycles determined at the outset and based on investigator discretion. […]

brentuximab vedotin
median duration of response ([1]; 1.8 mg/kg every 3 weeks): 12.6 months
objective response (CR+PR) rate ([1]; 1.8 mg/kg every 3 weeks): 86%
patients achieving a CR ([1]; 1.8 mg/kg every 3 weeks): 57%
tolerability ([1]; manageable side effects): generally well tolerated
median duration of response ([1]; subset of patients who achieved a CR): 13.2 months
maximum tolerated dose [2]: 1.8 mg/kg

B1: G-CSF (protein, UniProt P09919 31-207, looked up)
Granulocyte …: TPLGPASSLPQSFLLKCLEQVRKIQGDGAALQEKLVSECATYKLCHPEELVLLGHSLGIPWAPLSSCPSQALQLAGCLSQLHSGLFLYQGLLQALEGISPELGPTLDTLQLDVADFATTIWQQMEELGMAPALQPTQGAMPAFASAFQRRAGGVLVASHLQSFLEVSYRVLRHLAQP
effect of primary prophylactic G-CSF on febrile neutropenia [3]: reduced the incidence and severity
